Results as given in US11382985B2, “Anti-tumour immune responses to modified self-epitopes” (Scancell Limited, priority 2015, dated 2022).
Square brackets hold non-standard residues; d marks the D form. Ends that are not written are not given here. Cit = NC(=O)NCCC[C@H](N)C(=O)O

System: PBMCs
Assay: Luminex cytokine analysis of PBMC culture supernatants
Assay type: cell-based, human
Protocol: A three-step indirect procedure was used for the multiplexed Luminex assay (Invitrogen) for IgG antibodies to IL-10, IL-17, IFNy, TNFα, IL-2 & IL-4. Standard, control, and unknown sera were diluted 1:2 in 50% assay diluent buffer (Invitrogen) & 50% serum free RPMI. Serial standard dilutions were included in each assay. Each dilution of standard, control, and unknown sera was mixed with a set of coupled Luminex microspheres in 96-well filtration plates (Millipore Multiscreen; Millipore Corporation, Bedford, Mass.) and incubated for 2 hours at room temperature with shaking. Microspheres were collected by vacuum filtration and washed with PBST. Biotinylated detector antibody was added to each well for 1 hour at room temperature with shaking. Microspheres were collected by vacuum filtration and washed with PBST. Streptavidin conjugated R-phycoerythrin—was added to each well. Following a 30 minute incubation and a wash step, microspheres were resuspended in PBST, and read in a Biorad BioPlex Luminex analyzer equipped with an XY platform. Data acquisition and analysis performed with Luminex software (BioPlex Systems)

Substance: VIGMDVAASEFF-CIT-SGKYDLD (VIGMDVAASEFF[Cit]SGKYDLD; listed as Homo sapiens) [Enolase 241cit]
- IL-17, Granzyme B and TNFα levels above media background (Donor 4 supernatants): higher
- IFNγ and IL-10 levels above media background (Donor 4 supernatants at each time point): citrullinated peptide specific responses which increased over time
- IFNγ response (cultures on 3 donors): IFNγ responses
- IL-10, TNFα or IL-17 responses (cultures on 3 donors): low level
- IL-17 production by normal donors (normal donors stimulated with peptide): no IL-17 was produced
